Data published in US8815935B2, “Inhibitors of protein prenyltransferases” (The Regents of the University of California, priority 2008, dated 2014).
Where two headings read alike, the source gives them in different places. Values belong to the molecule of their own block, whether it stands above or below them.

Key:
FTase = biological target: T1, FTase (Rattus norvegicus, UniProt Q02293+Q04631); assay: In vitro FTase assay (K-Ras4B substrate, [3H]FPP); assay type: biochemical; conditions: at concentrations at which GGTase-I was inhibited by more than 90%
T1 construct: purchased JENA BIOSCIENCE
Text: To further characterize the pilot library, inhibitors of protein farnesyltransferase were identified. This was accomplished by using K-Ras4B as a substrate protein, tritiated farnesylpyrophosphate ([^3H]FPP) and protein farnesyltransferase. See Finegold, A. A., Johnson, D. I., Farnsworth, C. C., Gelb, M. H., Judd, S. R., Glomset, J. A. and Tamanoi, F. (1991) Protein geranylgeranyltransferase of Saccharomyces cerevisiae is specific for Cys-Xaa-Xaa-Leu motif and requires the CDC43 gene product but not the DPR1 gene product. Proc. Natl. Acad. Sci. USA 88, 4448-4452. […] On the other hand, the structure of the compounds P1-F11, P2-B7 and P2-E9 resemble those of GGTIs. The FTI P1-F11 resembles the GGTI P1-F10, while the FTI P2-B7 resembles the GGTI P2-C10. The FTI P2-E9 is similar to the GGTI P2-G3. Similarity of some GGTI and FTI compounds may point to common structural features between the two closely related enzymes. As described before, FTase and GGTase I have similar three-dimensional structures and a shared alpha subunit. On the other hand, FTase specific inhibitors may recognize a region(s) that is different between the two enzymes.
Examples 2-8 illustrate assays of bioactivity. These methods are applicable to the compounds of the present invention having the particular linkers and scaffolds described herein, to determine their activity. […] Varying concentrations of the two compounds were added to each enzyme reaction. The FTase (protein farnesyltransferase) assay was carried out using K-Ras4B as a substrate protein, FTase (JENA Bioscience, San Diego, Calif.) and [3H]farnesyl pyrophosphate. Incubation was for 30 min at 37° C.
(§1) GGTase-I and FTase activities were determined by following the incorporation of radiolabeled isoprenoid [^3H]-geranylgeranyl or [^3H]-farnesyl into substrate proteins. FTase or GGTase-I (50 nM) were used to initiate reactions containing 0.4 μM of [^3H]-FPP or 0.5 μM of [^3H]-GGPP and 2 μM of MBP-tagged substrates (K-Ras4B for FTase; RhoA for GGTase-I) in 20 μl of buffer {50 mM Tris-HCl (pH 7.5), 10 mM MgCl2, […] and 5 mM DTT}. Inhibitors were added at the indicated concentrations. The final DMSO concentration was 2.5% for all samples.
(§2) Reactions were carried out for 10 min at 30° C. The reaction mixture was spotted onto a filter paper, treated with 10% trichloroacetic acid (TCA) followed by ethanol and acetone washing. The filter was counted using a scintillation counter. Kinetic assays in which the GGPP concentration was varied employed fixed concentrations of GGTase-I and RhoA, and reactions were carried out for 5 min. Similarly, fixed concentrations of GGTase-I and GGPP were used when the amount of RhoA was varied.

[1] = tested on: geranylgeranylated Rheb (Rheb-CSVL) in HEK 293 cells; assay: Rheb-CSVL mobility shift in HEK 293 cells; assay type: cell-based, human; conditions: 48 hours
Text: Finally, we investigated in vivo effects of compounds 22 (also known as UC-22) and 23 (also known as UC-23). Human embryonic kidney (HEK) 293 cells were transfected with the Rheb-CSVL construct that expresses the geranylgeranylated form of the Rheb protein. Inhibition of the geranylgeranylation of this protein can be detected from a shift in its mobility on SDS polyacrylamide gel; the unprocessed form appears as a slowly migrating band.
Human embryonic kidney (HEK) 293 cells expressing Myc-HA tagged-Rheb-CVSL (upper) or Myc-HA tagged-Rheb-WT (lower) were treated with P3-E5 for 48 hours and then lysed. The cell lysates were run on a SDS polyacrylamide gel and immunoblotted using anti-Myc or anti-Actin antibody. The descriptors P and U indicate processed and unprocessed Rheb, respectively.
Human embryonic kidney (HEK) 293 cells expressing Myc-HA tagged-Rheb-CVSL (upper) or Myc-HA tagged-Rheb-WT (lower) were treated with mP5-H6a (also referred to as mP5-H6), or GGTI-298 for 48 hours and then lysed. Lysates were run on a SDS polyacrylamide gel and immunoblotted with anti-Myc or anti-Actin antibody.

GGTase-I = biological target: T2, GGTase-I (Rattus norvegicus, UniProt P53610+Q04631); assay: In vitro GGTase-I enzyme assay (IC50, kinetics); assay type: biochemical
T2 construct: purchased JENA BIOSCIENCE
Method: The GGTase-I assay was carried out using RhoA as a substrate protein, GGTase-I (JENA Bioscience) and [3H]geranylgeranyl pyrophosphate. Incubation was for 30 min at 37° C. GGTase-II (or RabGGTase) assay was carried out using YPTI as a substrate protein, GGTase-II (Calbiochem, San Diego, Calif.) plus REP1 (Calbiochem) and [3H]geranylgeranyl pyrophosphate. Incubation was for 30 min at 37° C. FIGS. 20D-20F show the three dimensional structure of GGTase I (D), FTsse (E) and GGTase II (F) which can be obtained from X-ray diffraction studies of protein crystals.
as §1, §2

Jurkat cells = assay: Jurkat cell growth inhibition; assay type: cell-based, human
Method: In Table 4 in cell GI50 values for the growth inhibition of Jurkat cells are reported. The GI50 value is the concentration of a test compound needed to produce 50% growth inhibition in the cell type listed. In Table 4 the isolated yield of each synthetic step for the synthesis of corresponding compounds are also reported.
(§3) Panc-1 cells (Pancreatic cancer cell line) and Jurkat cells (T-cell leukemia) were treated with 12.5 μM of P5-H6 or 12.5 μM of mP5-H6a for 72 hours. The cell number was counted as described in Example 5.
(§4) Cell viability was determined by Cell Counting Kit-8 (CCK-8, Dojindo, Kumamoto, Japan) as described previously (31). Cell viability was calculated relative to the DMSO control. Cell cycle profile was analyzed by flow cytometry as described previously (32).

K562 cells = assay: K562 cell growth inhibition; assay type: cell-based, human; conditions: no unit printed there
Method: K562 cells are a cell line of human erythroleukemia cells. The K562 cells were treated with P3-E5, P5-H6 or GGTI-298 (a known GGTI compound illustrated in FIG. 27) for 72 hours and then cell number was counted using cell counting kit-8 (Dojindo, Gaithersburg, Md.). Cell viability relative to the DMSO control and the known GGTI compound is plotted in FIG. 23.
as §4

MDA-MB-231 = MDA-MB-231 cell growth inhibition; assay type: cell-based, human; conditions: Tables 8-15, no unit printed there
Method: (§5) In FIG. 9-24 in vitro IC50 values for the GGTase I activity are reported. In Tables 7-15 in cell GI50 values for the growth inhibition of a variety of cancer cell lines (e.g., Jurkat, K562, MDA-MB-231, BT474, MCF7, MiaPaCa2, Aspc-1, Panc-1, Capan-2, CFpac-1, and MCF10a) are reported.
as §4

BT474 = BT474 cell growth inhibition; assay type: cell-based, human; conditions: no unit printed there
Method: as §5, §4

MCF7 = MCF7 cell growth inhibition; assay type: cell-based, human; conditions: Homo sapiens, MCF7, Tables 8-15; no unit printed there
Method: as §5, §4

MCF10a = MCF10a cell growth inhibition; assay type: cell-based; conditions: Homo sapiens, MCF-10A, Tables 8-15; no unit printed there
Text: as §5

MiaPaCa2 = MiaPaCa2 cell growth inhibition; assay type: cell-based, human; conditions: no unit printed there
Method: as §5, §4

Aspc-1 = Aspc-1 cell growth inhibition; assay type: cell-based, human; conditions: no unit printed there
Method: as §5, §4

Panc-1 = Panc-1 cell growth inhibition; assay type: cell-based, human; conditions: no unit printed there
Method: as §5, §3, §4

Capan-2 = Capan-2 cell growth inhibition; assay type: cell-based, human; conditions: no unit printed there
Method: as §5, §4

CFpac-1 = CFpac-1 cell growth inhibition; assay type: cell-based, human; conditions: no unit printed there
Method: as §5, §4

[2] = Tables 3, 5, 7, read-out: In vitro (enzyme assay) IC50, GGTase I
[3] = Tables 8-15, no unit printed there (Table 7 head: μM unless otherwise specified), read-out: In vitro (GGTase I IC50)
[4] = Tables 4, 6, 7, read-out: Jurkat cell GI50
[5] = Homo sapiens, MIA PaCa-2, Tables 8-15
[6] = Homo sapiens, ASPC1, Tables 8-15
[7] = Homo sapiens, PANC-1, Tables 8-15
[8] = Homo sapiens, Capan-2, Tables 8-15

- inhibition of FTase (FTase): did not inhibit FTase
Compound: Cc1ccccc1S(=O)(=O)N1[C@@H](c2ccc(Cl)cc2)C(C(=O)O)=C[C@H]1C(C)(C)C [compound 22]
- inhibition of geranylgeranylation of Rheb-CSVL (slowly migrating unprocessed band) [1]: inhibit geranylgeranylation within the cell

- IC50 (GGTase-I; [2]): 7.6 µM
- IC50 (GGTase-I; [3]): 7.6 µM
- GI50 (Jurkat cells; [4]): 6.9 µM
- GI50 (Jurkat cells; Tables 8-15, no unit printed there, read-out: Jurkat GI50): 6.9 µM
- GI50 (K562 cells; Tables 8-15): 6.9 µM
- GI50 (MDA-MB-231): 5.54 µM
- GI50 (BT474; Tables 8-15): 10.6 µM
- GI50 (MCF7): 4.74 µM
- GI50 (MiaPaCa2; Tables 8-15): 7.49 µM
- GI50 (Aspc-1; Tables 8-15): 11.5 µM
- GI50 (Panc-1; Tables 8-15): 7.52 µM
Compound: Cc1ccccc1S(=O)(=O)N1[C@@H](c2ccc(Cl)c(Cl)c2)C(C(=O)N[C@@H](Cc2ccccc2)C(N)=O)=C[C@H]1C(C)(C)C [P61-B11]
- GI50 (MCF10a): 9.38 µM
- GI50 (Capan-2; Tables 8-15): 11.3 µM
- GI50 (CFpac-1; Tables 8-15): 2.03 µM

- IC50 (GGTase-I; [2]): > 10 µM
- IC50 (GGTase-I; [3]): > 10 µM
- GI50 (Jurkat cells; [4]): 8.75 µM
- GI50 (Jurkat cells; Tables 8-15, no unit printed there, listed as P61B9, read-out: Jurkat GI50): 8.75 µM
- GI50 (K562 cells; Tables 8-15, listed as P61B9): 9.18 µM
- GI50 (MDA-MB-231; listed as P61B9): 11.3 µM
- GI50 (BT474; Tables 8-15, listed as P61B9): 9.9 µM
- GI50 (MiaPaCa2; Tables 8-15, listed as P61B9): 12.1 µM
- GI50 (Aspc-1; Tables 8-15, listed as P61B9): 16.8 µM
- GI50 (Panc-1; Tables 8-15, listed as P61B9): 12 µM
Compound: CC(C)(C)[C@@H]1C=C(C(=O)N[C@@H](Cc2ccccc2)C(N)=O)[C@H](c2ccc(Br)cc2)N1S(=O)(=O)c1ccccc1Cl [P61-B09]
- GI50 (Capan-2; Tables 8-15, listed as P61B9): 10.7 µM
- GI50 (CFpac-1; Tables 8-15, listed as P61B9): 6.3 µM

- GI50 (MiaPaCa2; [5]): 7.24 µM
- GI50 (Aspc-1; [6]): 11.4 µM
- GI50 (Panc-1; [7]): 6.45 µM
Compound: Cc1ccccc1S(=O)(=O)N1[C@@H](c2ccc(Cl)cc2)C(C(=O)N[C@@H](CC(C)C)C(N)=O)=C[C@H]1C(C)(C)C [drawing 164]
- GI50 (Capan-2; [8]): 6.69 µM
- GI50 (CFpac-1; Homo sapiens, CFPAC-1, Tables 8-15): < 1.25 µM

- IC50 (GGTase-I; [2]): 5.4 µM
- IC50 (GGTase-I; [3]): 5.4 µM
- GI50 (Jurkat cells; Homo sapiens, Jurkat, Tables 4, 6, 7, read-out: Jurkat cell GI50): 5.62 µM
- GI50 (Jurkat cells; Homo sapiens, Jurkat, Tables 8-15, no unit printed there, read-out: Jurkat GI50): 5.62 µM
- GI50 (K562 cells; Homo sapiens, K562, Tables 8-15): 6.74 µM
- GI50 (MDA-MB-231): 12.6 µM
- GI50 (BT474; Homo sapiens, BT-474, Tables 8-15): 10.8 µM
- GI50 (MiaPaCa2; [5]): 8.06 µM
- GI50 (Aspc-1; [6]): 12.9 µM
- GI50 (Panc-1; [7]): 11.7 µM
Compound: Cc1ccccc1S(=O)(=O)N1[C@@H](c2ccc(Cl)c(Cl)c2)C(C(=O)N[C@@H](Cc2ccccc2)C(N)=O)=C[C@H]1C(C)(C)C [P61-B10]
- GI50 (Capan-2; [8]): 8.45 µM
- GI50 (CFpac-1; Tables 8-15): 6.09 µM
